Measured values published in patent publication US11180494B2, “Substituted amino acids as integrin inhibitors” (Pliant Therapeutics, Inc., priority 2018, dated 2021).

Target: human integrin αvβ6 (Homo sapiens (Human), UniProt P06756+P18564)
Experiment: Proximity-based integrin receptor binding assay (ALPHASCREEN) for inhibitor potency
Details: inhibition of binding of TGF-b1 LAP to human integrin αvβ6, values given in ranges
Description: To gauge the potency of inhibitors of binding to human integrin αvβ6, inhibitor compounds and integrin were incubated together with TGF-b1 LAP and biotinylated anti-LAP antibody plus acceptor and donor beads, following the manufacture's recommendations. The donor beads were coated with streptavidin. […] All incubations occurred at room temperatures in 50 mM Tris-HCl, pH 7.5, 0.1% BSA supplemented with 1 mM each CaCl2 and MgCl2.
The order of reagent addition was as follows:
1. Alpha-v-beta-6 integrin, test inhibitor compound, LAP, biotinylated anti-LAP antibody and acceptor beads were all added together.
2. After 2 hours, donor beads were added. After another 30 minute incubation, samples were then read.
Integrin binding was evaluated by exciting donor beads at 680 nm, and measuring the fluorescent signal produced, between 520-620 nm, using a Biotek Instruments (Winooski, Vt., USA) SynergyNeo2 multimode plate reader. […] Data analysis for IC50 determinations was carried out by nonlinear four parameter logistic regression analysis using Dotmatics ELN Software (Core Informatics Inc., Branford, Conn.).

Sequence of human integrin αvβ6 (P06756 31-992): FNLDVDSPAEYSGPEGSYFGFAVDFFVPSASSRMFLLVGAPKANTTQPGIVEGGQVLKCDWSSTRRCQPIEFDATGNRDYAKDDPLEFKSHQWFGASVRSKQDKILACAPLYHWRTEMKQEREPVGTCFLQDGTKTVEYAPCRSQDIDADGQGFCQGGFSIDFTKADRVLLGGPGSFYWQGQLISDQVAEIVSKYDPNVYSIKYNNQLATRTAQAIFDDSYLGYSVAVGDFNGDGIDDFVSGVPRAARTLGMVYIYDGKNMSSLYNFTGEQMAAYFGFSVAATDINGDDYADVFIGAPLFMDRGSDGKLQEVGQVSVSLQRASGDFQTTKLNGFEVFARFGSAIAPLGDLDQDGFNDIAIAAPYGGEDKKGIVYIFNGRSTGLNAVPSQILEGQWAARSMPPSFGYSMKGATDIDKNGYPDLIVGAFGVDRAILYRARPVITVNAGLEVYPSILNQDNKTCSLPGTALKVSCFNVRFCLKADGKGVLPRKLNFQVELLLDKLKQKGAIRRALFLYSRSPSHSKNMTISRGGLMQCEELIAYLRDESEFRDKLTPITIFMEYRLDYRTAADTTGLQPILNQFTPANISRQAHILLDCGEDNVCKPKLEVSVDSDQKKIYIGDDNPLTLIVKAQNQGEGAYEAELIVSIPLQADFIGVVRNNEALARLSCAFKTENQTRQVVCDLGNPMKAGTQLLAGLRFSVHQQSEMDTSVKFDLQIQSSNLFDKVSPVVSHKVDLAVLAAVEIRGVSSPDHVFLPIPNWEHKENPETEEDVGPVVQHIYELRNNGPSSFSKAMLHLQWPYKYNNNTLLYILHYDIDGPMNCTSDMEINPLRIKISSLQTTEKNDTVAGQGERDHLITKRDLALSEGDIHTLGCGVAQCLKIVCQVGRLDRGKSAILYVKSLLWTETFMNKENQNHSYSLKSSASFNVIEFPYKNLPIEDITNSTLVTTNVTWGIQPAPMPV
Sequence of human integrin αvβ6 (P18564 22-707): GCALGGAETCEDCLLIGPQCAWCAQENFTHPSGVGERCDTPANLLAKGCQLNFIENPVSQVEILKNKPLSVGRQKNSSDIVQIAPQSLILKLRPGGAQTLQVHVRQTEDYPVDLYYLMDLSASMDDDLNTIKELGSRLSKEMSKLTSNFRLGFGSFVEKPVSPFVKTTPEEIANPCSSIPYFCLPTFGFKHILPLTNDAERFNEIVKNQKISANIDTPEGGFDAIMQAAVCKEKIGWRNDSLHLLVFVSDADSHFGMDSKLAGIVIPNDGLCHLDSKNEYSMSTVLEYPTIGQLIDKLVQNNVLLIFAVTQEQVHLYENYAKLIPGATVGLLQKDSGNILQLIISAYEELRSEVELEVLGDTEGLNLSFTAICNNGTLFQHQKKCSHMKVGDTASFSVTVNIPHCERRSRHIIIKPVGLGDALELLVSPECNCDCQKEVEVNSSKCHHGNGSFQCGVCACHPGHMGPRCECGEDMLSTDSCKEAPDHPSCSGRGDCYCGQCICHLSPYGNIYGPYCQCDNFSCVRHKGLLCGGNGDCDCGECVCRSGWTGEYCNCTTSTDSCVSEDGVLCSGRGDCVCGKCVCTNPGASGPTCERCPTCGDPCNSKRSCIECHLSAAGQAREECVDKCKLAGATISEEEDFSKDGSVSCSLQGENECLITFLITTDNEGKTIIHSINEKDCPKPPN

Row | Structure (SMILES) | IC50 | further results
1 | Cn1cc2cc(C(=O)N[C@@H](CCO[C@H]3C[C@H](CCc4ccc5c(n4)NCCC5)C3)C(=O)O)ccc2n1 [Compound 40, N-(2-methyl-2H-indazole-5-carbonyl)-O-(trans-3-(2-(5,6,7,8-tetrahydro-1,8-naphthyridin-2-yl)ethyl)cyclobutyl)homoserine] | 50 to 250 nM | 
2 | Cn1ccc2c(C(=O)N[C@@H](CCO[C@H]3C[C@H](CCc4ccc5c(n4)NCCC5)C3)C(=O)O)ccnc21 [Compound 41, N-(1-methyl-1H-pyrrolo[2,3-b]pyridine-4-carbonyl)-O-(trans-3-(2-(5,6,7,8-tetrahydro-1,8-naphthyridin-2-yl)ethyl)cyclobutyl)homoserine] | < 50 nM | 
3 | O=C(O)C(CCO[C@H]1C[C@H](CCc2ccc3c(n2)NCCC3)C1)NC(=O)[C@@H](CO)c1ccccc1 (stereo partly drawn) [Compound 42, N—((R)-3-hydroxy-2-phenylpropanoyl)-O-(trans-3-(2-(5,6,7,8-tetrahydro-1,8-naphthyridin-2-yl)ethyl)cyclobutyl)homoserine] | 50 to 250 nM | 
4 | O=C(O)C(CCO[C@H]1C[C@H](CCc2ccc3c(n2)NCCC3)C1)NC(=O)[C@@H](CO)c1ccccc1 (stereo partly drawn) [Compound 43, N—((R)-3-hydroxy-2-phenylpropanoyl)-O-(trans-3-(2-(5,6,7,8-tetrahydro-1,8-naphthyridin-2-yl)ethyl)cyclobutyl)homoserine] | 250 to 1000 nM | 
5 | CCC(CC)C(=O)N[C@@H](CCO[C@H]1C[C@H](CCc2ccc3c(n2)NCCC3)C1)C(=O)O [Compound 44, N-(2-ethylbutanoyl)-O-(trans-3-(2-(5,6,7,8-tetrahydro-1,8-naphthyridin-2-yl)ethyl)cyclobutyl)homoserine] | 50 to 250 nM | 
6 | CCC(CC)CC(=O)NC(CCO[C@H]1C[C@H](CCc2ccc3c(n2)NCCC3)C1)C(=O)O (stereo partly drawn) [Compound 45, N-(3-ethylpentanoyl)-O-(trans-3-(2-(5,6,7,8-tetrahydro-1,8-naphthyridin-2-yl)ethyl)cyclobutyl)homoserine] | 50 to 250 nM | 
7 | O=C(O)C(CCO[C@H]1C[C@H](CCc2ccc3c(n2)NCCC3)C1)NC(=O)[C@H](CO)c1ccccc1 (stereo partly drawn) [Compound 46, N—((S)-3-hydroxy-2-phenylpropanoyl)-O-(trans-3-(2-(5,6,7,8-tetrahydro-1,8-naphthyridin-2-yl)ethyl)cyclobutyl)homoserine] | 250 to 1000 nM | 
8 | O=C(O)C(CCO[C@H]1C[C@H](CCc2ccc3c(n2)NCCC3)C1)NC(=O)[C@H](CO)c1ccccc1 (stereo partly drawn) [Compound 47, N—((S)-3-hydroxy-2-phenylpropanoyl)-O-(trans-3-(2-(5,6,7,8-tetrahydro-1,8-naphthyridin-2-yl)ethyl)cyclobutyl)homoserine] | 250 to 1000 nM | 
9 | Cn1ccc2cc(C(=O)N[C@@H](CCO[C@H]3C[C@H](CCc4ccc5c(n4)NCCC5)C3)C(=O)O)cnc21 [Compound 48, N-(1-methyl-1H-pyrrolo[2,3-b]pyridine-5-carbonyl)-O-(trans-3-(2-(5,6,7,8-tetrahydro-1,8-naphthyridin-2-yl)ethyl)cyclobutyl)homoserine] | 250 to 1000 nM | 
10 | O=C(NC(CCO[C@H]1C[C@H](CCc2ccc3c(n2)NCCC3)C1)C(=O)O)c1cccc(-c2cncs2)c1 (stereo partly drawn) [Compound 49, O-(trans-3-(2-(5,6,7,8-tetrahydro-1,8-naphthyridin-2-yl)ethyl)cyclobutyl)-N-(3-(thiazol-5-yl)benzoyl)homoserine] | 50 to 250 nM | 
11 | O=C(N[C@@H](CCO[C@H]1C[C@H](CCc2ccc3c(n2)NCCC3)C1)C(=O)O)c1cccc(CO)c1 [Compound 50, N-(3-(hydroxymethyl)benzoyl)-O-(trans-3-(2-(5,6,7,8-tetrahydro-1,8-naphthyridin-2-yl)ethyl)cyclobutyl)homoserine] | < 50 nM | 
12 | O=C(N[C@@H](CCO[C@H]1C[C@H](CCc2ccc3c(n2)NCCC3)C1)C(=O)O)c1cccc2ncccc12 [Compound 51, N-(quinoline-5-carbonyl)-O-(trans-3-(2-(5,6,7,8-tetrahydro-1,8-naphthyridin-2-yl)ethyl)cyclobutyl)homoserine] | < 50 nM | 
13 | O=C(N[C@@H](CCO[C@H]1C[C@H](CCc2ccc3c(n2)NCCC3)C1)C(=O)O)c1ccccc1C1CC1 [Compound 52, N-(2-cyclopropylbenzoyl)-O-(trans-3-(2-(5,6,7,8-tetrahydro-1,8-naphthyridin-2-yl)ethyl)cyclobutyl)homoserine] | < 50 nM | 
14 | O=C(N[C@@H](CCO[C@H]1C[C@H](CCc2ccc3c(n2)NCCC3)C1)C(=O)O)c1ccc2cccnc2c1 [Compound 53, N-(quinoline-7-carbonyl)-O-(trans-3-(2-(5,6,7,8-tetrahydro-1,8-naphthyridin-2-yl)ethyl)cyclobutyl)homoserine] | 50 to 250 nM | 
15 | O=C(NC(CCO[C@H]1C[C@H](CCc2ccc3c(n2)NCCC3)C1)C(=O)O)c1cccc(-c2cncs2)c1 (stereo partly drawn) [Compound 61, O-(trans-3-(2-(5,6,7,8-tetrahydro-1,8-naphthyridin-2-yl)ethyl)cyclobutyl)-N-(3-(thiazol-5-yl)benzoyl)homoserine] |  | IC50 (listed as 61*): > 1000 nM
16 | O=C(NC(CCO[C@H]1C[C@H](CCc2ccc3c(n2)NCCC3)C1)C(=O)O)c1cccc(-c2cncs2)c1 (stereo partly drawn) [Compound 65, O-(trans-3-(2-(5,6,7,8-tetrahydro-1,8-naphthyridin-2-yl)ethyl)cyclobutyl)-N-(3-(thiazol-5-yl)benzoyl)homoserine] |  | IC50 (listed as 65**): < 50 nM

Second part, led by results:

Row | IC50 | Structure (SMILES) | further results
17 | 50 to 250 nM | O=C(N[C@@H](CCO[C@H]1C[C@H](CCc2ccc3c(n2)NCCC3)C1)C(=O)O)c1ccc2ncccc2c1 [Compound 54, N-(quinoline-6-carbonyl)-O-(trans-3-(2-(5,6,7,8-tetrahydro-1,8-naphthyridin-2-yl)ethyl)cyclobutyl)homoserine] | 
18 | 250 to 1000 nM | O=C(N[C@@H](CCO[C@H]1C[C@H](CCc2ccc3c(n2)NCCC3)C1)C(=O)O)c1cccc2cccnc12 [Compound 55, N-(quinoline-8-carbonyl)-O-(trans-3-(2-(5,6,7,8-tetrahydro-1,8-naphthyridin-2-yl)ethyl)cyclobutyl)homoserine] | 
19 | 50 to 250 nM | O=C(N[C@@H](CCO[C@H]1C[C@H](CCc2ccc3c(n2)NCCC3)C1)C(=O)O)c1cccc(C2CC2)c1 [Compound 56, N-(3-cyclopropylbenzoyl)-O-(trans-3-(2-(5,6,7,8-tetrahydro-1,8-naphthyridin-2-yl)ethyl)cyclobutyl)homoserine] | 
20 | 250 to 1000 nM | O=C(NC(CCO[C@H]1C[C@H](CCc2ccc3c(n2)NCCC3)C1)C(=O)O)c1ccc(C2CC2)cc1 (stereo partly drawn) [Compound 57, N-(4-cyclopropylbenzoyl)-O-(trans-3-(2-(5,6,7,8-tetrahydro-, 8-naphthyridin-2-yl)ethyl)cyclobutyl)homoserine] | 
21 | > 1000 nM | CCC(CC)CC(=O)N[C@H](CCO[C@H]1C[C@H](CCc2ccc3c(n2)NCCC3)C1)C(=O)O [Compound 59, N-(3-ethylpentanoyl)-O-(trans-3-(2-(5,6,7,8-tetrahydro-1,8-naphthyridin-2-yl)ethyl)cyclobutyl)-D-homoserine] | 
22 | 50 to 250 nM | O=C(NC(CCO[C@H]1C[C@H](CCc2ccc3c(n2)NCCC3)C1)C(=O)O)c1cccc(F)c1Cl (stereo partly drawn) [Compound 60, N-(2-chloro-3-fluorobenzoyl)-O-(trans-3-(2-(5,6,7,8-tetrahydro-1,8-naphthyridin-2-yl)ethyl)cyclobutyl)homoserine] | 
23 | < 50 nM | CCC(CC)CC(=O)NC(CCO[C@H]1C[C@H](CCc2ccc3c(n2)NCCC3)C1)C(=O)O (stereo partly drawn) [Compound 63, N-(3-ethylpentanoyl)-O-(trans-3-(2-(5,6,7,8-tetrahydro-1,8-naphthyridin-2-yl)ethyl)cyclobutyl)homoserine] | 
24 | < 50 nM | O=C(NC(CCO[C@H]1C[C@H](CCc2ccc3c(n2)NCCC3)C1)C(=O)O)c1cccc(F)c1Cl (stereo partly drawn) [Compound 64, N-(2-chloro-3-fluorobenzoyl)-O-(trans-3-(2-(5,6,7,8-tetrahydro-1,8-naphthyridin-2-yl)ethyl)cyclobutyl)homoserine] | 
25 | 50 to 250 nM | O=C(N[C@@H](CCO[C@H]1C[C@@H](CCc2ccc3c(n2)NCCC3)C1)C(=O)O)c1ccc(F)c(F)c1 [Compound 66, N-(3,4-difluorobenzoyl)-O-(cis-3-(2-(5,6,7,8-tetrahydro-1,8-naphthyridin-2-yl)ethyl)cyclobutyl)homoserine] | 
26 | 50 to 250 nM | CCC(CC)CC(=O)N[C@@H](CCO[C@H]1C[C@@H](CCc2ccc3c(n2)NCCC3)C1)C(=O)O [Compound 67, N-(3-ethylpentanoyl)-O-(cis-3-(2-(5,6,7,8-tetrahydro-1,8-naphthyridin-2-yl)ethyl)cyclobutyl)homoserine] | 
27 | 250 to 1000 nM | O=C(N[C@@H](CCO[C@H]1C[C@@H](CCc2ccc3c(n2)NCCC3)C1)C(=O)O)c1ccncc1 [Compound 68, N-isonicotinoyl-O-(cis-3-(2-(5,6,7,8-tetrahydro-1,8-naphthyridin-2-yl)ethyl)cyclobutyl)homoserine] | 
28 | 250 to 1000 nM | O=C(N[C@@H](CCO[C@H]1C[C@@H](CCc2ccc3c(n2)NCCC3)C1)C(=O)O)c1cccc(-c2cncs2)c1 [Compound 69, O-(cis-3-(2-(5,6,7,8-tetrahydro-1,8-naphthyridin-2-yl)ethyl)cyclobutyl)-N-(3-(thiazol-5-yl)benzoyl)homoserine] | 
29 | 50 to 250 nM | O=C(O)C(CCO[C@H]1C[C@@H](CCc2ccc3c(n2)NCCC3)C1)NC(=O)[C@@H](CO)c1ccccc1 (stereo partly drawn) [Compound 70, N—((R)-3-hydroxy-2-phenylpropanoyl)-O-(cis-3-(2-(5,6,7,8-tetrahydro-1,8-naphthyridin-2-yl)ethyl)cyclobutyl)homoserine] | 
